Experimental data from the NIST ThermoML archive (doi:10.1021/je900387e).
Numbers after ± are expanded uncertainties.

Assay: xn = mol fraction of the nth substance listed
Conditions: Liquid, Pycnometric method

CCCCBr [1-bromobutane] + O=C=O
Conditions	mass density [kg/m3]
317.9 K, 12010 kPa, x1 = 0.0989	916 ± 4
317.9 K, 12060 kPa, x1 = 0.1495	1014 ± 4
317.9 K, 12520 kPa, x1 = 0.1495	1018 ± 4
317.9 K, 12610 kPa, x1 = 0.0989	923 ± 4
317.9 K, 12970 kPa, x1 = 0.1495	1022 ± 4
317.9 K, 13250 kPa, x1 = 0.0989	930 ± 4
317.9 K, 13430 kPa, x1 = 0.1495	1026 ± 4
317.9 K, 13860 kPa, x1 = 0.1495	1029 ± 4
317.9 K, 13890 kPa, x1 = 0.0989	937 ± 4
317.9 K, 14380 kPa, x1 = 0.1495	1033 ± 4
317.9 K, 14630 kPa, x1 = 0.0989	944 ± 4
317.9 K, 14800 kPa, x1 = 0.1495	1036 ± 4
317.9 K, 14980 kPa, x1 = 0.0989	947 ± 4
317.9 K, 15020 kPa, x1 = 0.1495	1038 ± 4
322.7 K, 8260 kPa, x1 = 0.1495	946 ± 4
322.7 K, 8470 kPa, x1 = 0.1495	948 ± 4
322.7 K, 8500 kPa, x1 = 0.0989	818 ± 4
322.7 K, 8710 kPa, x1 = 0.1495	952 ± 4
322.7 K, 8720 kPa, x1 = 0.0989	825 ± 4
322.7 K, 8810 kPa, x1 = 0.0683	731 ± 4
322.7 K, 8820 kPa, x1 = 0.0245	422 ± 4
322.7 K, 8840 kPa, x1 = 0.0245	425 ± 4
322.7 K, 8860 kPa, x1 = 0.0461	629 ± 4
322.7 K, 8880 kPa, x1 = 0.0245	432 ± 4
322.7 K, 8880 kPa, x1 = 0.0683	735 ± 4
322.7 K, 8900 kPa, x1 = 0.0461	632 ± 4
322.7 K, 8920 kPa, x1 = 0.0245	439 ± 4
322.7 K, 8920 kPa, x1 = 0.0989	830 ± 4
322.7 K, 8920 kPa, x1 = 0.1495	954 ± 4
322.7 K, 8940 kPa, x1 = 0.0461	639 ± 4
322.7 K, 8960 kPa, x1 = 0.0245	447 ± 4
322.7 K, 8970 kPa, x1 = 0.0683	740 ± 4
322.7 K, 8990 kPa, x1 = 0.0461	647 ± 4
322.7 K, 9000 kPa, x1 = 0.0245	455 ± 4
322.7 K, 9060 kPa, x1 = 0.0461	655 ± 4
322.7 K, 9070 kPa, x1 = 0.0245	465 ± 4
322.7 K, 9070 kPa, x1 = 0.0683	745 ± 4
322.7 K, 9110 kPa, x1 = 0.0245	473 ± 4
322.7 K, 9120 kPa, x1 = 0.0461	662 ± 4
322.7 K, 9160 kPa, x1 = 0.0245	482 ± 4
322.7 K, 9160 kPa, x1 = 0.0683	750 ± 4
322.7 K, 9160 kPa, x1 = 0.0989	836 ± 4
322.7 K, 9160 kPa, x1 = 0.1495	958 ± 4
322.7 K, 9190 kPa, x1 = 0.0461	671 ± 4
322.7 K, 9210 kPa, x1 = 0.0245	491 ± 4
322.7 K, 9250 kPa, x1 = 0.0683	755 ± 4
322.7 K, 9260 kPa, x1 = 0.0245	500 ± 4
322.7 K, 9270 kPa, x1 = 0.0461	679 ± 4
322.7 K, 9320 kPa, x1 = 0.0245	510 ± 4
322.7 K, 9360 kPa, x1 = 0.0683	759 ± 4
322.7 K, 9370 kPa, x1 = 0.0245	520 ± 4
322.7 K, 9380 kPa, x1 = 0.0461	687 ± 4
322.7 K, 9380 kPa, x1 = 0.1495	961 ± 4
322.7 K, 9400 kPa, x1 = 0.0989	841 ± 4
322.7 K, 9430 kPa, x1 = 0.0245	531 ± 4
322.7 K, 9480 kPa, x1 = 0.0461	696 ± 4
322.7 K, 9480 kPa, x1 = 0.0683	765 ± 4
322.7 K, 9500 kPa, x1 = 0.0245	542 ± 4
322.7 K, 9570 kPa, x1 = 0.0245	553 ± 4
322.7 K, 9600 kPa, x1 = 0.0683	770 ± 4
322.7 K, 9610 kPa, x1 = 0.0461	705 ± 4
322.7 K, 9650 kPa, x1 = 0.0989	847 ± 4
322.7 K, 9660 kPa, x1 = 0.0245	565 ± 4
322.7 K, 9670 kPa, x1 = 0.1495	964 ± 4
322.7 K, 9730 kPa, x1 = 0.0683	775 ± 4
322.7 K, 9750 kPa, x1 = 0.0245	576 ± 4
322.7 K, 9810 kPa, x1 = 0.0461	718 ± 4
322.7 K, 9850 kPa, x1 = 0.0245	590 ± 4
322.7 K, 9870 kPa, x1 = 0.0683	780 ± 4
322.7 K, 9910 kPa, x1 = 0.1495	968 ± 4
322.7 K, 9930 kPa, x1 = 0.0245	599 ± 4
322.7 K, 9930 kPa, x1 = 0.0989	853 ± 4
322.7 K, 9990 kPa, x1 = 0.0245	606 ± 4
322.7 K, 10000 kPa, x1 = 0.0245	608 ± 4
322.7 K, 10050 kPa, x1 = 0.0683	786 ± 4
322.7 K, 10090 kPa, x1 = 0.0461	733 ± 4
322.7 K, 10160 kPa, x1 = 0.1495	971 ± 4
322.7 K, 10230 kPa, x1 = 0.0683	791 ± 4
322.7 K, 10240 kPa, x1 = 0.0989	859 ± 4
322.7 K, 10420 kPa, x1 = 0.0461	748 ± 4
322.7 K, 10420 kPa, x1 = 0.0683	797 ± 4
322.7 K, 10440 kPa, x1 = 0.1495	974 ± 4
322.7 K, 10550 kPa, x1 = 0.0989	870 ± 4
322.7 K, 10620 kPa, x1 = 0.0683	802 ± 4
322.7 K, 10760 kPa, x1 = 0.1495	977 ± 4
322.7 K, 10820 kPa, x1 = 0.0461	764 ± 4
322.7 K, 10840 kPa, x1 = 0.0683	808 ± 4
322.7 K, 10910 kPa, x1 = 0.0989	872 ± 4
322.7 K, 10980 kPa, x1 = 0.1495	980 ± 4
322.7 K, 11080 kPa, x1 = 0.0683	814 ± 4
322.7 K, 11270 kPa, x1 = 0.0989	877 ± 4
322.7 K, 11290 kPa, x1 = 0.0461	779 ± 4
322.7 K, 11340 kPa, x1 = 0.0683	820 ± 4
322.7 K, 11370 kPa, x1 = 0.1495	984 ± 4
